Data as given in ChEMBL document CHEMBL3244119, “Synthesis and hypoglycemic activity of S-acyl derivatives of 3-mercaptopicolinic acid” (J Med Chem, 1977).

Assays:
[1] = tested on: Rattus norvegicus; test: Hypoglycemic activity in 48 hrs fasted rat assessed as reduction in glucose level at 300 mg/kg, po measured after 1 hr; assay type: functional; set-up: scale not given: the % may be the effect or the level left
[2] = tested on: Rattus norvegicus; test: Hypoglycemic activity in 48 hrs fasted rat assessed as reduction in glucose level at 300 mg/kg, po measured after 2 hrs; assay type: functional; set-up: scale not given: the % may be the effect or the level left
[3] = tested on: Rattus norvegicus; test: Hypoglycemic activity in 48 hrs fasted rat assessed as reduction in glucose level at 300 mg/kg, po measured after 4 hrs; assay type: functional; set-up: scale not given: the % may be the effect or the level left
[4] = tested on: Rattus norvegicus; test: Hypoglycemic activity in 48 hrs fasted rat assessed as reduction in glucose level at 125 mg/kg, po measured after 1 hr; assay type: functional; set-up: scale not given: the % may be the effect or the level left
[5] = tested on: Rattus norvegicus; test: Hypoglycemic activity in 48 hrs fasted rat assessed as reduction in glucose level at 125 mg/kg, po measured after 2 hrs; assay type: functional; set-up: scale not given: the % may be the effect or the level left
[6] = tested on: Rattus norvegicus; test: Hypoglycemic activity in 48 hrs fasted rat assessed as reduction in glucose level at 125 mg/kg, po measured after 4 hrs; assay type: functional; set-up: scale not given: the % may be the effect or the level left
[7] = Half life of the compound at pH 8; assay type: physicochemical
[8] = Half life of the compound at pH 6; assay type: physicochemical
[9] = Stability of the compound assessed as rate of 3-mercaptopicolinic acid formation at 10 mg at pH 6 by DTNB method; assay type: physicochemical
[10] = Stability of the compound assessed as rate of 3-mercaptopicolinic acid formation at 10 mg at pH 8 by DTNB method; assay type: physicochemical
[11] = Stability of the compound in 3 N HCl at room temperature after 3.5 hrs by TLC; assay type: physicochemical; conditions: buffer
[12] = Stability of the compound in 3 N HCl-ethanol […] measured after refluxing for 2.5 hrs by TLC; assay type: physicochemical; conditions: buffer
[13] = tested on: Rattus norvegicus; test: Hypoglycemic activity in 48 hrs fasted rat assessed as reduction in glucose level at 150 mg/kg, po measured after 1 hr; assay type: functional; set-up: scale not given: the % may be the effect or the level left
[14] = tested on: Rattus norvegicus; test: Hypoglycemic activity in 48 hrs fasted rat assessed as reduction in glucose level at 150 mg/kg, po measured after 2 hrs; assay type: functional; set-up: scale not given: the % may be the effect or the level left
[15] = tested on: Rattus norvegicus; test: Hypoglycemic activity in 48 hrs fasted rat assessed as reduction in glucose level at 150 mg/kg, po measured after 4 hrs; assay type: functional; set-up: scale not given: the % may be the effect or the level left
[16] = Stability of the compound assessed as compound remaining at equilibrium at 10 mg at pH 6 by DTNB method; assay type: physicochemical
[17] = tested on: Rattus norvegicus; test: Hypoglycemic activity in 48 hrs fasted rat assessed as reduction in glucose level at 250 mg/kg, po measured after 1 hr; assay type: functional; set-up: scale not given: the % may be the effect or the level left
[18] = tested on: Rattus norvegicus; test: Hypoglycemic activity in 48 hrs fasted rat assessed as reduction in glucose level at 250 mg/kg, po measured after 2 hrs; assay type: functional; set-up: scale not given: the % may be the effect or the level left
[19] = tested on: Rattus norvegicus; test: Hypoglycemic activity in 48 hrs fasted rat assessed as reduction in glucose level at 250 mg/kg, po measured after 4 hrs; assay type: functional; set-up: scale not given: the % may be the effect or the level left
[20] = tested on: Rattus norvegicus; test: Hypoglycemic activity in 48 hrs fasted rat assessed as reduction in glucose level at 200 mg/kg, po measured after 1 hr; assay type: functional; set-up: scale not given: the % may be the effect or the level left
[21] = tested on: Rattus norvegicus; test: Hypoglycemic activity in 48 hrs fasted rat assessed as reduction in glucose level at 200 mg/kg, po measured after 2 hrs; assay type: functional; set-up: scale not given: the % may be the effect or the level left
[22] = tested on: Rattus norvegicus; test: Hypoglycemic activity in 48 hrs fasted rat assessed as reduction in glucose level at 200 mg/kg, po measured after 4 hrs; assay type: functional; set-up: scale not given: the % may be the effect or the level left

Row | SMILES | half-life [7] | half-life [8] | Activity [9] | Activity [10] | Activity [1] | Activity [2] | Activity [3] | Activity [13] | Activity [14] | Activity [15] | further results
1 | CN(C)c1ccc(C(=O)Sc2cccnc2C(=O)O)cc1 | – | – | – | – | – | – | – | -12% | -2% | -8% | –
2 | O=C(O)c1ncccc1S | – | – | – | – | – | – | – | -32% | -44% | -56% | –
3 | N#Cc1ccc(C(=O)Sc2cccnc2C(=O)O)cc1 | – | – | – | – | – | – | – | -18% | -16% | 0% | –
4 | COC(=O)c1ccc(C(=O)Sc2cccnc2C(=O)O)cc1 | – | – | – | – | – | – | – | -17% | -20% | 1% | –
5 | NS(=O)(=O)c1ccc(C(=O)Sc2cccnc2C(=O)O)cc1 | – | – | – | – | – | – | – | 20% | -16% | 3% | –
6 | NC(=O)c1ccc(C(=O)Sc2cccnc2C(=O)O)cc1 | – | – | – | – | – | – | – | -22% | -6% | -25% | –
7 | CC(=O)Nc1ccc(C(=O)Sc2cccnc2C(=O)O)cc1 | – | – | – | – | – | – | – | -18% | -14% | 7% | –
8 | O=C(Nc1ccc(C(=O)Sc2cccnc2C(=O)O)cc1)c1ccccc1 | – | – | – | – | – | – | – | -20% | -20% | -4% | –
9 | CCC(=O)Sc1cccnc1C(=O)O | – | – | – | – | – | – | – | – | – | – | Activity [17]: 22%; Activity [18]: 52%; Activity [19]: 55%
10 | CCCCCCCCCCC(=O)Sc1cccnc1C(=O)O | – | – | – | – | – | – | – | -14% | 3% | -9% | –
11 | CCCCNC(=O)NS(=O)(=O)c1ccc(C)cc1 [TOLBUTAMIDE] | – | – | – | – | – | – | – | – | – | – | Activity [20]: 28%; Activity [21]: 47%; Activity [22]: 48%

The next lines start with results.

Row | half-life [7] | half-life [8] | Activity [9] | Activity [10] | SMILES | Activity [1] | Activity [2] | Activity [3] | Activity [13] | Activity [14] | Activity [15] | further results
12 | 115 h | 61.1 h | 0.006 h⁻¹ | 0.0114 h⁻¹ | CC(C)(C)C(=O)Sc1cccnc1C(=O)O | -20% | -43% | -70% | – | – | – | Activity [4]: 21%; Activity [5]: 42%; Activity [6]: 52%
13 | 60.1 h | 21.1 h | 0.0115 h⁻¹ | 0.0329 h⁻¹ | O=C(Sc1cccnc1C(=O)O)c1ccccc1 | -27% | -42% | -56% | – | – | – | Stability [11]: Stable; Stability [12]: Stable
14 | 14.8 h | 4.7 h | 0.0468 h⁻¹ | 0.148 h⁻¹ | O=C(Sc1cccnc1C(=O)O)c1cccc(Cl)c1 | -27% | -32% | -42% | – | – | – | –
15 | 75.8 h | 27.2 h | 0.0091 h⁻¹ | 0.0255 h⁻¹ | O=C(Sc1cccnc1C(=O)O)c1ccccc1Cl | -35% | -39% | -40% | – | – | – | –
16 | 26.6 h | 7.9 h | 0.0261 h⁻¹ | 0.0879 h⁻¹ | O=C(Sc1cccnc1C(=O)O)c1ccc(Cl)cc1 | -43% | -34% | -57% | – | – | – | Activity [4]: 12%; Activity [5]: 34%; Activity [6]: 40%
17 | 10 h | 3.9 h | 0.0695 h⁻¹ | 0.179 h⁻¹ | O=C(Sc1cccnc1C(=O)O)c1cccc(C(F)(F)F)c1 | -35% | -38% | 45% | – | – | – | –
18 | 10.1 h | 3 h | 0.0688 h⁻¹ | 0.231 h⁻¹ | O=C(Sc1cccnc1C(=O)O)c1ccc(C(F)(F)F)cc1 | -26% | -54% | -75% | – | – | – | Activity [4]: 28%; Activity [5]: 41%; Activity [6]: 32%
19 | 63.7 h | 11.9 h | 0.0109 h⁻¹ | 0.0583 h⁻¹ | COc1cccc(C(=O)Sc2cccnc2C(=O)O)c1 | -15% | -24% | -30% | – | – | – | –
20 | 182 h | 43.9 h | 0.0038 h⁻¹ | 0.0158 h⁻¹ | COc1ccc(C(=O)Sc2cccnc2C(=O)O)cc1 | 16% | -25% | 19% | – | – | – | –
21 | 80.1 h | 25.6 h | 0.0087 h⁻¹ | 0.0271 h⁻¹ | Cc1ccc(C(=O)Sc2cccnc2C(=O)O)cc1 | -21% | -16% | -4% | – | – | – | –
22 | 111 h | 12.1 h | 0.0062 h⁻¹ | 0.0575 h⁻¹ | O=C(Sc1cccnc1C(=O)O)c1ccc(F)cc1 | -29% | -47% | -44% | – | – | – | –
23 | 4.7 h | 1.4 h | 0.147 h⁻¹ | 0.513 h⁻¹ | O=C(Sc1cccnc1C(=O)O)c1ccc([N+](=O)[O-])cc1 | 0% | 0% | 12% | – | – | – | Stability [16]: 24.3 mol%
